Test results from patent US9301938B2, “Composition and method for treatment of diabetes” (BioKier, Inc., priority 2009, dated 2016).

Legend:
obese diabetic patients [1] = experiment: Oral Glucose Tolerance Test (OGTT) or standardized meal after a single dose; type: in vivo, human; details: overnight fasted patients
Procedure: Drug is delivered as an enema or suppositories made as described in^1 (containing 1 g of glutamine). 10 overnight fasted obese diabetic patients with impaired gut hormone effect^3 and/or impaired gut hormone secretion^4,5 are dosed rectally with one suppository (or enema). 30 minutes after drug administration, patients are subjected to Oral Glucose Tolerance Test (OGTT) or standardized meal. Blood is collected at the following time points: −30, 0, 5; 10, 15, 30, 60, 90, and 120 minutes. Blood is analyzed for levels of: glucose, insulin, GLP-1, PYY, other hormones and lipids. […] Drug is delivered as an enema or suppositories made as described in^1 (containing 2 g of butyric acid). 10 overnight fasted obese diabetic patients with impaired incretin effect^3 and/or impaired gut hormone secretion^4,5 are dosed rectally with one suppository (or enema). 30 minutes after drug administration, patients are subjected to Oral Glucose Tolerance Test (OGTT) or standardized meal. Blood is collected at the following time points: −30, 0, 5; 10, 15, 30, 60, 90, and 120 minutes. Blood is analyzed for levels of: glucose, insulin, GLP-1, PYY, other hormones and lipids. […] Tablets formulated with MMX technology (containing 1 g of glutamine) are made as described in^2. 10 overnight fasted obese diabetic patients with impaired gut hormone effect^3 and/or impaired gut hormone secretion^4,5 are dosed with one MMX tablet at 8:00 AM. 4 hrs after drug administration, patients are subjected to Oral Glucose Tolerance Test (OGTT) or standardized meal. Blood is collected at the following time points: −30, 0, 5; 10, 15, 30, 60, 90, and 120 minutes. Blood is analyzed for levels of: glucose, insulin, GLP-1, PYY, other hormones and lipids. […] Tablets formulated with MMX technology (containing 2 g of butyric acid) are made as described in^2. 10 overnight fasted obese diabetic patients with impaired gut hormone effect^3 and/or impaired gut hormone secretion^4,5 are dosed with one MMX tablet at 8:00 AM. 4 hrs after drug administration, patients are subjected to Oral Glucose Tolerance Test (OGTT) or standardized meal. Blood is collected at the following time points: −30, 0, 5; 10, 15, 30, 60, 90, and 120 minutes. Blood is analyzed for levels of: glucose, insulin, GLP-1, PYY, other hormones and lipids.

obese diabetic patients [2] = experiment: Six-week once-daily MMX tablet treatment with OGTT or standardized meal; type: in vivo, human; details: one MMX tablet daily before first meal for six weeks
Procedure: Tablets formulated with MMX technology (containing 1 g of glutamine) are made as described in^2. 10 obese diabetic patients with impaired incretin effect^3 and/or impaired incretin secretion^4,5 are dosed with one MMX tablet at 8:00 AM before first meal for six (6) weeks. HbA1c, fasting glucose and insulin are measured before treatment and at 1, 2, and 6 weeks after initiation of the treatment. Additionally, patients are subjected at these times to Oral Glucose Tolerance Test (OGTT) or standardized meal. Blood is collected at the following time points: −30, 0, 5; 10, 15, 30, 60, 90, and 120 minutes. Blood is analyzed for levels of: glucose, insulin, GLP-1, PYY, other hormones and lipids. […] Tablets formulated with MMX technology (containing 2 g of butyric acid) are made as described in^2. 10 obese diabetic patients with impaired gut hormone effect^3 and/or impaired gut hormone secretion^4,5 are dosed with one MMX tablet at 8:00 AM before first meal for six (6) weeks. HbA1c, fasting glucose and insulin are measured before the treatment and at 1, 2, and 6 weeks after initiation of the treatment. Additionally, patients are subjected at these times to Oral Glucose Tolerance Test (OGTT) or standardized meal. Blood is collected at the following time points: −30, 0, 5; 10, 15, 30, 60, 90, and 120 min. Blood is analyzed for levels of: glucose, insulin, GLP-1, PYY, other hormones and lipids.

[3] = one MMX tablet orally, 4 hrs before OGTT or standardized meal
[4] = one MMX tablet orally, 4 hrs before standardized meal
[5] = one suppository or enema rectally, 30 minutes before OGTT or standardized meal
[6] = one suppository or enema rectally, 30 minutes before standardized meal

NC(=O)CC[C@H](N)C(=O)O [glutamine]
decrease: Glucose levels (obese diabetic patients [1]; [3]) | lipids levels (after standardized meal) (obese diabetic patients [1]; [4]) | Glucose levels (obese diabetic patients [1]; [5]) | lipids levels (after standardized meal) (obese diabetic patients [1]; [6]) | Glucose levels (obese diabetic patients [2])
lower than pre-treatment levels: triglycerides levels versus pre-treatment (obese diabetic patients [2])

CCCC(=O)O [butyric acid]
lower than pre-treatment levels: triglycerides levels versus pre-treatment (obese diabetic patients [2])
decrease: Glucose levels (obese diabetic patients [1]; [3]) | lipids levels (after standardized meal) (obese diabetic patients [1]; [4]) | Glucose levels (obese diabetic patients [1]; [5]) | lipids levels (after standardized meal) (obese diabetic patients [1]; [6]) | Glucose levels (obese diabetic patients [2])
